Measured values reported in patent US8076059B2 (priority 2003, dated 2011).

What was measured:
Parameters in all cases: species or system mice
Conditions in all cases: mouse, in vivo
peripheral mast cells = test system: peripheral mast cells
anti-PA IgG = test system: anti-PA IgG
CD4 T-cells = test system: CD4 T-cells

Substance: TNF-α
- lymph node hypertrophy after direct injection into footpads (peripheral mast cells): marked lymph node hypertrophy
- time of maximal lymph node growth (peripheral mast cells): 48 h

Substance: cholera toxin [CT]
- adjuvant activity, serum anti-PA IgG by ELISA on day 175 (anti-PA IgG): significant adjuvant activity over PA alone
- adjuvant activity, serum anti-PA IgG geometric mean titers (anti-PA IgG): significant adjuvant activity at all doses tested

Substance: pertussis toxin
- T-cell recruitment to draining lymph nodes after T-cell pretreatment (CD4 T-cells): inhibited T-cell recruitment to draining lymph nodes
